Our source for the IC50, melting point and Ki values is patent US7312358B2, “Pharmaceutically active sulfanilide derivatives” (Laboratoires Serono SA, priority 2000, dated 2007).

Structures are written as SMILES.

One series has as its target T1, hOT-R (Homo sapiens, UniProt P30559).
T1 construct: expressed in transfected cells; host or cells: HEK (Human Embryonic Kidney) cells
T1 sequence (P30559 1-389): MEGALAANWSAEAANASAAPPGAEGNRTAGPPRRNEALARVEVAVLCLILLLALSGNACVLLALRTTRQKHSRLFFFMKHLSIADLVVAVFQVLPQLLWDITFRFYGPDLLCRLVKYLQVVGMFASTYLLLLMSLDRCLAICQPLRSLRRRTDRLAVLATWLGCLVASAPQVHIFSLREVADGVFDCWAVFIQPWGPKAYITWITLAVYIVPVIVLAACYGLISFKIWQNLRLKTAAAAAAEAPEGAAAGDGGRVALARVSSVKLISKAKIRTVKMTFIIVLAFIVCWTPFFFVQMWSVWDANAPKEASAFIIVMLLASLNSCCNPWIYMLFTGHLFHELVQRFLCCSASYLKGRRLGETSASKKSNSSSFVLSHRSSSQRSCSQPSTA
The series is described as follows: Inhibition of oxytocin mediated Ca2+-mobilization by FLIPR (HEK cells). In kind it is cell-based. The conditions noted are these: fluo-4, OT 40 nM. From the text: c) Functional Assay No. 1: Inhibition of Oxytocitn Mediated Ca^2+-Mobilization by FLIPR (Fluorescent Imaging Plate Reader)
FLIPR is a machine for fluorescence imaging using a laser that is capable of illuminating a 96-well plate and a means of simultaneously reading each well thus enabling rapid measurements on a large number of samples.
This assay intends to show the inhibition of the OT/OT-R mediated calcium mobilisation—being necessary to cause uterine contractions—by using test compounds of formula (I).
Preparing the plates: FLIPR-plates were pre-coated with PLL (Poly-L-Lysine) 10 μg/ml+0.1% gelatine to attach the HEK (Human Embryonic Kidney) cells for 30 min up to 2 days at 37° C. The cells were plated out into 96-well plates (60000 cells/well).
Labelling with fluo-4: […] fluo-4 (fluorescent marker) were dissolved in 20 μl pluronic acid (20% in DMSO). The dissolved fluo-4 was then diluted in 10 ml DMEM (Dubecco's Minimal Essential Medium-F12 medium without FCS (Fetal Calf Serum). The medium was removed from the plates, followed by one wash with DNEM-F12 medium. Now, 100 μl of the DMEM-F12 medium containing fluo-4 were added and the cells incubated for 1.5-2 h (HEK-cells). The cells now contain the fluorescent marker.
Buffer: 145 mM NaCl, 5 mM KCl, 1 mM MgCl2, 10 mM Hepes, 10 mM Glucose, EGTA (Ethylene-bis oxyethylene nitrilo tetraacetic acid). Adjust to pH 7.4.
Performance of the assay: A minimum of 80 μl/well of antagonists (5×) in the above buffer (1×) were prepared (96-well plates). The antagonists were added to the well-plates at different concentrations (30 μM, 10 μM, 1 μM, 300 nM, 100 nM, 10 nM, 1 nM, 100 pM, 10 pM).
OT is added at a concentration of 40 nM.
The fluorescent marker being sensitive to the amount of Ca^2+ mobilized within the cell may be quantified by the FLIPR machine.
The activities of the sulfanilide derivatives according to formula I were assessed using the above described in vitro biological assay. The values refer to the capacity of the example compounds according to formula I to effectively antagonize oxytocin-induced intracellular Ca^2+-mobilization mediated by the oxytocin receptor.

For a further series, the target named is T2, hOT receptor (Homo sapiens, UniProt P30559).
T2 construct: expressed in transfected cells; host or cells: HEK293EBNA cells (membranes)
T2 sequence (P30559 1-389): T1 sequence (P30559 1-389)
Description: In vitro competition binding assay on hOT receptor with scintillating proximity assay. To be noted: membranes from HEK293EBNA cells expressing hOT receptor; radiolabel [125I]-OVTA; SPA; read-out: Binding Affinity Human OT-R Ki. Here is the method: a) In Vitro Competition Binding Assay on hOT Receptor with Scintillating Proximity Assay (Pharmaceutical Manufacturing International, 1992, p. 49-53 by Cook, N. D. et al)
This assays allows to determine the affinity of the test compounds for the OT receptor. Membranes from HEK293EBNA cells expressing the hOT receptor were resuspended in buffer containing 50 mM Tris-HCl, pH 7.4, 5 mM MgCl2 and 0.1% BSA (w/v). The membranes (2-4 μg) were mixed with 0.1 mg wheat-germ aglutinin (WGA) SPA bead (type A) and 0.2 nM of the radiolabel [^125I]-OVTA (OVTA being […] and is an analogue of OT for competition binding experiments). Non-specific binding was determined in the presence of 1 μM Oxytocin. The total assay volume was 100 μl. The plates (Corning (D NBS plate) were incubated at room temperature for 30 min and counted on a Mibrobeta plate counter. The tests compounds were used in concentrations of 30 μM, 10 μM, 1 μM, 300 nM, 100 nM, 10 nM, 1 nM, 100 pM, 10 pM. The competition binding data were analysed using the iterative, nonlinear, curve-fitting program, “Prism”.
The binding affinities to the oxytocin receptor of the sulfanilide derivatives claimed in the formula I were assessed using the above described in vitro biological assay. The values refer to the binding affinity (IC50; μM) of the example compounds according to formula I to the Oxytocin receptor. From the values shown in Table 1 it can be derived that said test compounds according to formula I do show a significant binding to the oxytocin receptor.

In turn, `COc1ccc(N(CC(=O)Nc2cccc(Cl)c2C)S(=O)(=O)c2ccccc2)cc1` [2-[Benzenesulfonyl-(4-methoxy-phenyl)-amino]-N-(3-chloro-2-methyl-phenyl)-acetamide] gave an IC50 against hOT-R of 45 nM.

`COc1ccc(N(CC(=O)Nc2cccc(OC)c2)S(=O)(=O)c2ccccc2)cc1` [2-[Benzenesulfonyl-(4-methoxy-phenyl)-amino]-N-(3-methoxy-phenyl)-acetamide] returned an IC50 against hOT-R of 392 nM.

Compound `COc1ccc(N(CC(=O)Nc2cccc3ccccc23)S(=O)(=O)c2ccccc2)cc1` [2-[Benzenesulfonyl-(4-methoxy-phenyl)-amino]-N-naphthalen-1-yl-acetamide] yielded an IC50 on hOT-R of 363 nM.

In turn, `COc1ccc(-c2ccc(S(=O)(=O)N(CC(=O)N/N=C3\C(=O)Nc4ccccc43)c3ccc(C)cc3)cc2)cc1` [Example 19, 4′-methoxy-N-(4-methylphenyl)-N-{2-oxo-2-[2-(2-oxo-1,2-dihydro-3H-indol-3-ylidene)hydrazino]ethyl}[1,1′-biphenyl]-4-sulfonamide] registered a melting point of 235 to 236 °C.

As for `CCOc1ccc(S(=O)(=O)N(CC(=O)N/N=C2/C(=O)N(C)c3ccccc32)c2ccc(C)cc2)cc1` [Example 20, 4-ethoxy-N-{2-[2-(1-methyl-2-oxo-1,2-dihydro-3H-indol-3-ylidene)hydrazino]-2-oxoethyl}-N-(4-methylphenyl)benzenesulfonamide], the melting point is 109 to 110 °C.

On to `CCOc1ccc(S(=O)(=O)N(CC(=O)N/N=C(/C)c2ccccc2O)c2ccc(C)cc2)cc1` [Example 22, 4-ethoxy-N-(2-{2-[1-(2-hydroxyphenyl)ethylidene]hydrazino}-2-oxoethyl)-N-(4-methylphenyl)benzenesulfonamide], for which the melting point is 199 to 200 °C.

Turning to `CC(C)(C)c1ccc(S(=O)(=O)N(CC(=O)N/N=C2/C(=O)Nc3ccccc32)c2ccc(Cl)cc2)cc1` [Example 26, 4-tert-Butyl-N-(4-chlorophenyl)-N-{2-oxo-2-[(2E)-2-(2-oxo-1,2-dihydro-3H-indol-3-ylidene)hydrazino]ethyl}benzenesulfonamide], the melting point was 194 to 195 °C.

In turn, `COc1ccc(S(=O)(=O)N(CC(=O)N/N=C2/C(=O)Nc3ccccc32)c2ccc(Cl)cc2)cc1OC` [Example 27, N-(4-chlorophenyl)-3,4-dimethoxy-N-{2-oxo-2-[(2E)-2-(2-oxo-1,2-dihydro-3H-indol-3-ylidene)hydrazino]ethyl}benzenesulfonamide] came in with a melting point of 132 to 133 °C.

Turning to `Cc1ccc(N(CC(=O)N/N=C2/C(=O)Nc3ccccc32)S(=O)(=O)c2ccc(C(C)(C)C)cc2)cc1` [Example 28, 4-tert-Butyl-N-(4-methylphenyl)-N-{2-oxo-2-[(2E)-2-(2-oxo-1,2-dihydro-3H-indol-3-ylidene)hydrazino]ethyl}benzenesulfonamide], the melting point is 139 to 140 °C.

As to `CCCc1ccc(S(=O)(=O)N(CC(=O)N/N=C2/C(=O)Nc3ccccc32)c2ccc(C)cc2)cc1` [Example 29, N-(4-methylphenyl)-N-{2-oxo-2-[(2E)-2-(2-oxo-12-dihydro-3H-indol-3-ylidene)hydrazino]ethyl}-4-propylbenzenesulfonamide], the melting point fell in the range of 198 to 199 °C.

On to `CCCCOc1ccc(S(=O)(=O)N(CC(=O)N/N=C2/C(=O)Nc3ccccc32)c2ccc(C)cc2)cc1` [Example 30, 4-Butoxy-N-(4-methylphenyl)-N-{2-oxo-2-[(2E)-2-(2-oxo-1.2-dihydro-3H-indol-3-ylidene)hydrazino]ethyl}benzenesulfonamide], for which the melting point was in the range of 111 to 112 °C.

On hOT-R, `CCOc1ccc(S(=O)(=O)N(CC(=O)N/N=C2\C(=O)Nc3ccccc32)c2ccc(Cl)cc2)cc1` [Example 40, N-(4-chlorophenyl)-4-ethoxy-N-{2-oxo-2-[(2Z)-2-(2-oxo-1,2-dihydro-3H-indol-3-ylidene)hydrazino]ethyl}benzenesulfonamide] returned an IC50 of 102 nM. In addition, the Ki on hOT receptor was 0.4 nM.

For the compound `COCCOCCOc1ccc(S(=O)(=O)N(CC(=O)N/N=C2\C(=O)Nc3ccccc32)c2ccc(Cl)cc2)cc1` [Example 61, N-(4-chlorophenyl)-4-[2-(2-methoxyethoxy)ethoxy]-N-{2-oxo-2-[(2Z)-2-(2-oxo-1,2-dihydro-3H-indol-3-ylidene)hydrazino]ethyl}benzenesulfonamide], 6.9 nM corresponded to half-maximal inhibition against hOT-R (IC50). Also, the Ki on hOT receptor is 2.9 nM.

At hOT-R, `COCCOc1ccc(S(=O)(=O)N(CC(=O)N/N=C2\C(=O)Nc3ccccc32)c2ccc(Cl)cc2)cc1` [Example 62, N-(4-chlorophenyl)-4-(2-methoxyethoxy)-N-{2-oxo-2-[(2Z)-2-(2-oxo-1,2-dihydro-3H-indol-3-ylidene)hydrazino]ethyl}benzenesulfonamide] gave a concentration for half-maximal inhibition (IC50) of 8 nM.

`O=C(CN(c1ccc(Cl)cc1)S(=O)(=O)c1ccc(OCCCc2cccnc2)cc1)N/N=C1\C(=O)Nc2ccccc21` [Example 63, N-(4-chlorophenyl)-N-{2-oxo-2-[(2Z)-2-(2-oxo-1,2-dihydro-3H-indol-3-ylidene)hydrazino]ethyl}-4-[3-(3-pyridinyl)propoxy]benzenesulfonamide]: on hOT-R, the IC50 was 17 nM. Further, the Ki at hOT receptor stood at 2.8 nM.

Regarding `O=C(CN(c1ccc(Cl)cc1)S(=O)(=O)c1ccc(NCCN2CCOCC2)cc1)N/N=C1\C(=O)Nc2ccccc21` [Example 65, N-(4-chlorophenyl)-4-{[2-(4-morpholinyl)ethyl]amino}-N-{2-oxo-2-[(2Z)-2-(2-oxo-1,2-dihydro-3H-indol-3-ylidene)hydrazino]ethyl}benzenesulfonamide], the IC50 against hOT-R is 49 nM. For the same compound, the Ki at hOT receptor came out at 6.9 nM.

Compound `Cc1ccc(N(CC(=O)N/N=C2\C(=O)Nc3ccccc32)S(=O)(=O)c2ccc(CCC(N)=O)cc2)cc1` [Example 66, 3-{4-[(4-methyl{2-oxo-2-[(2Z)-2-(2-oxo-1,2-dihydro-3H-indol-3-ylidene)hydrazino]ethyl}anilino)sulfonyl]phenyl}propanamide] displayed an IC50 on hOT-R of 19 nM. In addition, at hOT receptor, the Ki worked out at 3.4 nM.

`COC(=O)c1cccc2c1NC(=O)/C2=N\NC(=O)CN(c1ccc(Cl)cc1)S(=O)(=O)c1ccc(OCCCN(C)C)cc1` [Example 70, Methyl (3Z)-3-({[4-chloro({4-[3-(dimethylamino)propoxy]phenyl}sulfonyl)anilino]acetyl}hydrazono)-2-oxo-2,3-dihydro-1H-indole-7-carboxylate] displayed an IC50 on hOT-R of 393 nM. Further, the Ki at hOT receptor was determined as 108 nM.

Take `Cc1ccc(N(CC(=O)NCc2ccc(Cl)cc2Cl)S(=O)(=O)c2ccc(C)cc2)cc1` [N-(2,4-Dichloro-benzyl)-2-[(toluene-4-sulfonyl)-p-tolyl-amino]-acetamide]: inhibition against hOT-R was half-maximal at 595 nM (IC50).
